Data set [1] concerns patients with heterozygous familial hypercholesterolemia (HeFH). Description: Phase 2 trial MGL-3196-06 (NCT03038022) in HeFH patients. Type of data set: in vivo, human. The settings on record: MGL-3196 100 mg once daily, 12 weeks. As to the method: A Phase 2 clinical trial was conducted in 116 patients with proven heterozygous familial hypercholesterolemia (HeFH). The primary endpoint was reduction in LDL-C compared with placebo and secondary endpoints included effects on additional lipids and lipoproteins.
MGL-3196-06 (NCT03038022) was a 12-week multicenter, randomized, double blind, placebo-controlled trial in HeFH patients not at LDL-C target on maximally tolerated statins. Patients received MGL-3196 100 mg or placebo once daily for 12 weeks (in a 2:1 ratio) in addition to their LDL-C lowering regimen.

In the next data set the target is T1, BCRP (Homo sapiens, UniProt Q9UNQ0).
T1 sequence (Q9UNQ0 1-655): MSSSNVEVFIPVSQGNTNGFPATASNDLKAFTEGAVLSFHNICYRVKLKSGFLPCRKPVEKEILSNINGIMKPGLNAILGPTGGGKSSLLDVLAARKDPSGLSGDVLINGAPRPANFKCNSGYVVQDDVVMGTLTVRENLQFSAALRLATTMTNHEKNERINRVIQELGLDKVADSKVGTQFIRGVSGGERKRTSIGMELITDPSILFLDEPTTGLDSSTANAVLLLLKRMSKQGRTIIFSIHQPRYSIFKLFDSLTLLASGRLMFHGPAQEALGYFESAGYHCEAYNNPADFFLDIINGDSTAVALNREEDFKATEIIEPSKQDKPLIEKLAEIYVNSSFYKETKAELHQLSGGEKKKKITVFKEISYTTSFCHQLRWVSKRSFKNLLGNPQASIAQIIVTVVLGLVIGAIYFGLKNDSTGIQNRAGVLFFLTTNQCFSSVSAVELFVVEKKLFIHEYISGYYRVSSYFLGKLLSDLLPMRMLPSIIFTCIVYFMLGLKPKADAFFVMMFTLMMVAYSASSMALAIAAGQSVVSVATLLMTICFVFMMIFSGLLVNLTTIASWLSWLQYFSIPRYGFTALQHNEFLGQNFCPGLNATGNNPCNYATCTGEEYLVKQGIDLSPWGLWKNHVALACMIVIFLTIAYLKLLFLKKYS
The data set can be described thus: BCRP inhibition and DDI R-value assessment. Type of data set: in vitro ADME. From the text:
(§1) Based on the predicted gut-wall BCRP interaction (R=33.5), there is a possible contribution of gut BCRP inhibition to drug interactions.

The target of another data set is P-gp (Homo sapiens, UniProt P08183). The data set can be described thus: P-gp inhibition. Type of data set: in vitro ADME.
Sequence of P-gp (P08183 whole entry): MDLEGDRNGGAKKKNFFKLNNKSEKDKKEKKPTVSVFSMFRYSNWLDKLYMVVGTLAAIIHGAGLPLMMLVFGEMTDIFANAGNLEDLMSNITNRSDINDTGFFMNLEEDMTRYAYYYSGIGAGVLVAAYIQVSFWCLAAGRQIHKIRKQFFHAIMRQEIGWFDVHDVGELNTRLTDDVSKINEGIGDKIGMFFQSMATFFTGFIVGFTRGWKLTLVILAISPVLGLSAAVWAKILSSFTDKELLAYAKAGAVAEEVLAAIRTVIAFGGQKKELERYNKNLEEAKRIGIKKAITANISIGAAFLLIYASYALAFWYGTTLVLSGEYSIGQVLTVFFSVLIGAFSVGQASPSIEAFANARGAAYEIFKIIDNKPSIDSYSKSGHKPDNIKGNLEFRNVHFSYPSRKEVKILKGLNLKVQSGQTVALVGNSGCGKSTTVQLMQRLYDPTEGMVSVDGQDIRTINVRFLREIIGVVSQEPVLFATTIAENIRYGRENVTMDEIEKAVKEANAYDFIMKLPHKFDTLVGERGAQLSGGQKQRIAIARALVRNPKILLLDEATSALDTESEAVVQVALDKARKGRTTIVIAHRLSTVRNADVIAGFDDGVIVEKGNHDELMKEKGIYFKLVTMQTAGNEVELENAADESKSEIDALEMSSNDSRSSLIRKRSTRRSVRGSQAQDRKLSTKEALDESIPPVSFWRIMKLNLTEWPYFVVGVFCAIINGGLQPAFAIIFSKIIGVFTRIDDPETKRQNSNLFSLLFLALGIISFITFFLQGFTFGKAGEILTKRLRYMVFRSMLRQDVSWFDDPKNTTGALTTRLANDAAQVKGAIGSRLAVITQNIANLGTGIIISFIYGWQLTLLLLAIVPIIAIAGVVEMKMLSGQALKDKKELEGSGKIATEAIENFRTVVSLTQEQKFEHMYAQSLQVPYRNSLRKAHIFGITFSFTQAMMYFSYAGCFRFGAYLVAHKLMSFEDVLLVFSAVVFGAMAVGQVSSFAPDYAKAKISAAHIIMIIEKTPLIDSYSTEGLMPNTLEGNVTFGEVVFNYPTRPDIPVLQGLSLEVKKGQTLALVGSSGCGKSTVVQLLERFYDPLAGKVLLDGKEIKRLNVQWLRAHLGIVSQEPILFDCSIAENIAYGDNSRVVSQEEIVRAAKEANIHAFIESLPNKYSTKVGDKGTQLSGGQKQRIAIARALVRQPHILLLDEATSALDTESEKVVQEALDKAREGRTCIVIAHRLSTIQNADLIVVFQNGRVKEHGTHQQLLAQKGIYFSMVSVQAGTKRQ
Excerpt: as §1

The target of another data set is T2, human OSTαβ (Homo sapiens, UniProt Q86UW1+Q86UW2).
T2 sequence (Q86UW1 1-340): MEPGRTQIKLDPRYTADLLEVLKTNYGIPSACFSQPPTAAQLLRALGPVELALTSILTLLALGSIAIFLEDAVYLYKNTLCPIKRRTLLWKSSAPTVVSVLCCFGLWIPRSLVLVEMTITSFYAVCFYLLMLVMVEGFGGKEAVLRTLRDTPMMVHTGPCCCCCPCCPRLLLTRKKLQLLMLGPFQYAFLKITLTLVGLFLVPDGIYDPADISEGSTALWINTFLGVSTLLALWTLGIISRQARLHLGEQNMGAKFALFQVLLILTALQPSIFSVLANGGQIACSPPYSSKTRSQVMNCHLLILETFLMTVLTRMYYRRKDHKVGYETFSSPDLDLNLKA
T2 sequence (Q86UW2 1-128): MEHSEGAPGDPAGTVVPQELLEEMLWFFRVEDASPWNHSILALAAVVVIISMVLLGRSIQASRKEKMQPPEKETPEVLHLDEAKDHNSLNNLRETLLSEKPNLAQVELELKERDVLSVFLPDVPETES
The data set can be described thus: OSTαβ-mediated transport in transfected MDCK-II cells versus control cells. The protocol:
Transfected cells and control cells are both exposed to the compound, and the concentration of the compound in the transfected cells and the control cells are then measured. An uptake ratio can then be calculated to quantify the difference of the concentration, indicating whether OSTαβ mediates the transport of the compound.
MGL-3196 was tested as a potential substrate for human OSTαβ-mediated transport.

For data set [2] the following is noted: human, in vivo.
The next data set relates to patients with NASH. To be noted: cited from earlier work.
For data set [3] the following is noted: cited from earlier work.
Another data set can be described thus: clinical. The settings on record: human, in vivo; for AUC(0-inf): AUCinf; for AUC(0-t): AUClast.

With `CC(C)c1cc(Oc2c(Cl)cc(-n3nc(C#N)c(=O)[nH]c3=O)cc2Cl)n[nH]c1=O` [MGL-3196, 2-(3,5-dichloro-4-((5-isopropyl-6-oxo-1,6-dihydropyridazin-3-yl)oxy)phenyl)-3,5-dioxo-2,3,4,5-tetrahydro-1,2,4-triazine-6-carbonitrile], the “LDL-C and other atherogenic lipids lowering in patients with HeFH” value in data set [1] (versus placebo) is on record as “statistically significantly lowers”. In data set [1] (versus placebo, p<0.0001), the “Apolipoprotein B (ApoB) lowering” value is on record as −18-29%, the “Apolipoprotein CIII (Apo CIII) lowering” value is recorded as −22%, the “Lipoprotein (a) (Lp(a)) lowering” value is listed as −26-33% and the “Triglyceride (TG) lowering” value was −25-31%. Also, the “LDL-C lowering compared to placebo” value in data set [1] (prespecified group of patients intolerant of high intensity statin doses) was 28.5%. Also, at BCRP, the “Inhibition of BCRP (in words)” value is listed as “moderate inhibitor”. For the same compound, at BCRP (Biliary/renal/BBB, [Ifree]/IC50 ≥ 0.02), the “DDI R-value” amounted to 0.004. Besides, the “DDI R-value” on BCRP (Intestine, [I2]/IC50 ≥ 10, predicted gut-wall BCRP interaction) is recorded as 33.5. Also, the “Inhibition of P-gp (in words)” value at P-gp is given as “not an inhibitor”. Also, the “Substrate for human OSTαβ (conclusion in words)” value on human OSTαβ (MDCK) is on record as “may be a substrate”. Moreover, the “Accumulation in control cells” value at human OSTαβ (dog, MDCK, 1 μM) is 1.91 ± 0.220 pmol/min/cm^2. Also, the “Accumulation in control cells” value at human OSTαβ (dog, MDCK, 10 μM) is 11.3 ± 0.500 pmol/min/cm^2. Besides, at human OSTαβ (dog, MDCK, 100 μM), the “Accumulation in control cells” value is 49.3 ± 6.28 pmol/min/cm^2. For the same compound, on human OSTαβ (human, MDCK, 1 μM), the “Accumulation in transporter cells” value was 2.58 ± 0.103 pmol/min/cm^2 and the Net accumulation was found to be 0.670 ± 0.103 pmol/min/cm^2. Besides, at human OSTαβ (human, MDCK, 10 μM), the “Accumulation in transporter cells” value was determined as 21.9 ± 0.810 pmol/min/cm^2 and the Net accumulation is reported as 10.6 ± 0.810 pmol/min/cm^2. Moreover, on human OSTαβ (human, MDCK, 100 μM), the “Accumulation in transporter cells” value is listed as 137 ± 12.8 pmol/min/cm^2 and the Net accumulation turned out to be 88.1 ± 12.8 pmol/min/cm^2. Moreover, the “Safety issues such as liver enzyme or creatine kinase (CK) elevations” value in data set [2] is on record as “no safety issues were observed”. Besides, in the data set with patients with NASH (after 12 weeks and 36 weeks of treatment), the “Reducing hepatic fat compared to placebo” value was “effective”. In addition, in the data set on patients with NASH, the “Improving markers of liver injury and fibrosis compared to placebo” value is on record as “effective”; the “Reducing atherogenic lipids and lipoproteins (LDL cholesterol, apolipoprotein B, triglycerides, lipoprotein(a), apolipoprotein CIII) compared to placebo” value is reported as “effective”. The “Effect on elevated liver enzymes” value in data set [3] (NASH patients) was “reduces elevated liver enzymes”. Also, in data set [3] (in vivo), the Safety profile result is recorded as “clean safety profile” and the “Suppression of the central thyroid axis, THR-α effects on heart rate or bone” value is given as “neither suppression of the central thyroid axis nor THR-α effects on heart rate or bone”.

One may read the AUC(0-inf) as the area under the concentration-time curve extrapolated to infinity. High values mean more exposure, low ones less exposure. In general, AUC(0-t) refers to exposure summed from dosing to a finite time, without extrapolation to infinity. Read a low AUC(0-t) as low exposure. Broadly, the Tmax is the time from dosing to the highest level. Turning to `CC(C)c1nc(N(C)S(C)(=O)=O)nc(-c2ccc(F)cc2)c1/C=C/[C@@H](O)C[C@@H](O)CC(=O)O` [rosuvastatin, (E)-7-[4-(4-fluorophenyl)-6-isopropyl-2-[methyl(methylsulfonyl)amino]pyrimidin-5-yl](3R,5S)-3,5-dihydroxyhept-6-enoic acid, reference compound], the “Accumulation in control cells” value at human OSTαβ (dog, MDCK, 1 μM) is on record as 0.0557 ± 0.00359 pmol/min/cm^2. The “Accumulation in control cells” value at human OSTαβ (dog, MDCK, 10 μM) stood at 0.297 ± 0.0377 pmol/min/cm^2. Besides, on human OSTαβ (human, MDCK, 0.1 μM), the “Accumulation in control cells” value came to 0.00664 ± 0.00215 pmol/min/cm^2, the “Accumulation in transporter cells” value is given as 0.00894 ± 0.000845 pmol/min/cm^2 and the Net accumulation is 0.0023 ± 0.000845 pmol/min/cm^2. Also, on human OSTαβ (human, MDCK, 1 μM), the “Accumulation in transporter cells” value is reported as 0.0575 ± 0.00167 pmol/min/cm^2 and the Net accumulation was 0.00176 ± 0.00167 pmol/min/cm^2. On human OSTαβ (human, MDCK, 10 μM), the “Accumulation in transporter cells” value came to 0.459 ± 0.0599 pmol/min/cm^2 and the Net accumulation worked out at 0.162 ± 0.0599 pmol/min/cm^2. In data set [2], the “Cmax, geometric mean” value is 3.11 ng/mL. In data set [2] (10 mg), the “% AUCexts, mean” value is listed as 10.6%; the “Cmax, mean” value is 3.62 ng/mL; the “T1/2, mean” value was 18.2 h. In “clinical” (10 mg, mean), this compound displayed an AUC(0-inf) of 51.7 ng·h/mL and an AUC(0-t) of 44.5 ng·h/mL. Also, in “clinical” (10 mg, Tmax, mean), the Tmax worked out at 4.56 h. Besides, in “clinical” (geometric mean), the AUC(0-inf) came to 46.6 ng·h/mL and the AUC(0-t) turned out to be 38 ng·h/mL.

In the case of `C[C@H](CCC(=O)NCCS(=O)(=O)O)[C@H]1CC[C@H]2[C@@H]3[C@H](O)C[C@@H]4C[C@H](O)CC[C@]4(C)[C@H]3C[C@H](O)[C@]12C` [taurocholic acid, reference compound], at human OSTαβ (1 μM substrate), the Net accumulation came out at 0.0809 ± 0.0105 pmol/min/cm^2. The “Accumulation in transporter cells” value at human OSTαβ (1 μM substrate, OSTαβ MDCK-II cells) came out at 0.109 ± 0.0105 pmol/min/cm^2.

The values are drawn from US12661359B2 (Madrigal Pharmaceuticals, Inc., priority 2021, dated 2026).
